Data published in PMC7970304, “The Effects of Apelin and Elabela Ligands on Apelin Receptor Distinct Signaling Profiles” (Frontiers in Pharmacology, 2021).

Legend:
[1] = tested on: APJ (Apelin receptor); ERK1/2 phosphorylation; experiment: ERK1/2 activation assay, Western blot; type: cell-based; conditions: for Bias factor / Log (Bias): WB-ERK over Ca2+, reference Apelin-13; for Log (Bias): footnote a = statistically insignificant; for log (τ/KA) / Δlog (τ/KA): WB-ERK; for log (τ/KA): Black–Leff operational model; for Δlog (τ/KA): relative to Apelin-13
Protocol: HEK293 cells expressing APJ were spilt into 6-well plates at a density of 10^5 cells per well and cultured until reaching approximately 90% confluence. The cells were treated with different concentrations of peptide ligands (0.01–1,000 nM). The cells were washed twice with Phosphate-buffered saline (PBS) and lyzed in RIPA lysis buffer (50 mm Tris–HCl, pH 7.41, 50 mM NaCl, 1 mM EDTA, 10 mM MgCl2, 1 mM DTT, 1 mM PMSF, 1 μg/ml […], […]), 1.4 μg/ml […] and 0.5% (v/v) NP-40). After centrifugation at 14,000 rpm at 4°C for 30 min, the supernatant was collected and separated by 10% SDS-PAGE. Gel transfer takes about 60 min at 250 mA. The nitrocellulose membrane was sealed with 5% skim milk dissolved in 0.1% Triton X-100 of PBS. The primary ERK1/2 antibody was diluted with 5% bovine serum albumin (BSA) at 1:2,000, and the second antibody was diluted with 1:5,000. The ECL reagent was applied to the membrane. The films were scanned by Vanoscan Lide 700F scanner and analyzed by scion image software. The dose-response curve was fitted using the data detected at 5 min after stimulation.
(§1) The concentration-response data for the ligands in various assays were analyzed to determine the biases of the ligands for G protein dependent signaling or β-arrestin dependent signaling, according to a previously published method ([Kenakin et al., 2012]; [Hager et al., 2016]; [Hothersall et al., 2017]). Briefly, the concentration-response data for each ligand were fitted to the Black–Leff operation model to obtain the values of τ and K A, using the following equation: Response=[A]^nτ^nEm/[A]^nτ^n+([A]KA)^n where [A] is the concentration of the agonist, E m is the maximal response of the system, n is the transducer slope, and K A and τ describe the affinity and efficacy of the agonist, respectively. In the data fitting, the reparametrized form of the equation proposed by [Kenakin et al. (2012)] was used: Response=Em/1+exp{nln[1+exp(β1)/[A]]−nβ2} where β 1 and β 2 are the natural logarithm of K A and τ, respectively, and E m was set to 1. Thus, for each concentration-response curve, a non-linear regression was performed to fit the above equation to give β 1 and β 2 (as well as n). Log (τ/K A) values (“transduction coefficients”) for each ligand vs. each pathway were obtained. […] The ΔΔlog (τ/K A), or Log (Bias), which is the logarithm of the bias factor for a given pathway over a reference pathway (here, intracellular calcium release), was calculated for each ligand as Δlog (τ/K A)–Δlog (τ/K A)Calcium. The 95% confidence interval (CI) was expressed as the mean ± standard error; Log (Bias) values, whose 95% CI crosses 0, were considered statistically insignificant.
The data were analyzed using GraphPad Prism v5.0. All the data are presented as the mean ± SEM. Differences between groups were compared by one-way analysis of variants (ANOVA), followed by post-hoc tests (Tukey’s test), When p < 0.05, the difference was considered significant. All experiments were repeated at least four times. The dose-response curves were generated using non-linear fitting model log (agonist) vs. response (three-parameters), with Hill Slope held to 1, i.e., Y = Bottom + (Top-Bottom)/(1 + 10^(LogEC50-X)).
FIGURE 4 Changes of ERK1/2 phosphorylation in HEK293 cells with stable expression of APJ: (A–F) after 5-min stimulation by the six agonists in different concentrations (0.01–1,000 nM) (G and H) ERK was measured after 5 or 15 min stimulation with six peptides at a concentration of 100 nM. Levels of p-ERK, total ERK were determined by Western blot. The data represent means ± SEM of four independent experiments.

[2] = tested on: β-arrestin 2–AP2 interaction induced by APJ; experiment: BRET interaction of β-arrestin 2 and β2-adaptin (AP2) induced by APJ; type: cell-based; conditions: for log (τ/KA) / Δlog (τ/KA): APJ-β-arrestin2-AP2; for log (τ/KA): Black–Leff operational model; for Δlog (τ/KA): relative to Apelin-13; for Bias factor / Log (Bias): APJ-β-arrestin2-AP2 over Ca2+, reference Apelin-13; for Log (Bias): footnote a = statistically insignificant
Protocol: To detect the potencies of different peptide ligands for APJ in living cells, real-time kinetic bioluminescence resonance energy transfer (BRET) assays were carried out as follows. HEK293 cells were grown to 80–90% confluence in 24-well plates and transiently transfected with various Rluc-, EYFP-, or Venus-tagged constructs ([Chen et al., 2014]; [Liu et al., 2016]). Approximately 36 h after transfection, the long-acting luciferase substrate EnduRen (E6481, Promega, Beijing Biotech Co., Ltd.) was added to each well at a final concentration of 60 μM and cells were incubated for 2 h at 37°C in a 5% CO2 incubator. BRET experiments were carried out using a Mithras LB941 plate reader (Berthold Technologies, Bad Wildbad, Germany) with three filters: a Rluc filter (400–475 nm), a Venus filter (515–575 nm) and an EGFP filter (500–550 nm) ([Liu et al., 2016]; [Ji et al., 2017]). The BRET ratio was calculated as the ratio of the emission at 535 ± 30 nm to that at 485 ± 20 nm. The results are expressed as the mBRET (mBRET = 1,000 × BRET ratio) ([Pfleger et al., 2006a]; [Pfleger et al., 2006b]). We use high glucose as a negative control group.
HEK293 cells were transiently co-transfected with the designated Rluc and GFP2 or Venus or EYFP-labeled constructs. Twenty-four hours after transfection, the cells were harvested in phenol red free medium containing 5% FCS in HEPES buffer and seeded in 96 well white microplate coated with poly-D-lysine. After 24 h, cells were washed twice in PBS and re-suspended in PBS containing 0.5 mM MgCl2 and 0.1% glucose. Coelenterazine h substrate was added at a final concentration of 5 μM in the total volume of 50 μL/well. Kinetic-response and dose-response curve of the recruitment of GRKs or β-arrestin 1 and β-arrestin 2 or AP2 to the APJ by six peptides measured by BRET. […] The BRET signals between receptor and GRKs/β-arrestin1 and 2/AP2 were recorded at 10 min (GRK2/5) or 15 min (β-arrestin1 and) or 30 min (AP2) after agonist stimulation. We use high glucose as a control group. BRET assays were performed as described previously ([Xue et al., 2018]). […] This signal is defined as the ligand induced BRET ratio.
as §1
The data were analyzed using GraphPad Prism v5.0. All the data are presented as the mean ± SEM.

SMILES | Bias factor [1] | Log (Bias) [1] | log (τ/KA) [1] | Δlog (τ/KA) [1] | log (τ/KA) [2] | Δlog (τ/KA) [2] | Bias factor [2] | Log (Bias) [2] | ERK1/2 phosphorylation (in words) ([1]; 100 nM, 15 min) | bias over calcium release ([1]; ERK pathway) [fold]
CSCC[C@H](NC(=O)[C@@H](NC(=O)[C@H](CC(C)C)NC(=O)[C@H](CC(N)=O)NC(=O)[C@@H](NC(=O)[C@@H]1CCCN1C(=O)[C@H](CCCNC(=N)N)NC(=O)[C@@H](N)CCC(N)=O)C(C)C)[C@@H](C)O)C(=O)N[C@@H](CCCNC(=N)N)C(=O)N[C@@H](CCCNC(=N)N)C(=O)N[C@@H](CCCCN)C(=O)N[C@@H](CC(C)C)C(=O)N[C@@H](CCCNC(=N)N)C(=O)N[C@@H](CCCCN)C(=O)N[C@@H](Cc1c[nH]cn1)C(=O)N[C@@H](CC(N)=O)C(=O)N[C@H]1CSSC[C@@H](C(=O)N[C@@H](CCSC)C(=O)N2CCC[C@H]2C(=O)N[C@@H](CC(C)C)C(=O)N[C@@H](Cc2c[nH]cn2)C(=O)N[C@@H](CO)C(=O)N[C@@H](CCCNC(=N)N)C(=O)N[C@H](C(=O)N2CCC[C@H]2C(=O)N[C@@H](Cc2ccccc2)C(=O)N2CCC[C@H]2C(=O)O)C(C)C)NC(=O)[C@H](CCCNC(=N)N)NC(=O)[C@H](CCCNC(=N)N)NC(=O)[C@H](CCC(N)=O)NC(=O)[C@H](CC(C)C)NC1=O [Elabela-32] | 3.0 | 0.5 ± 0.3 | −1.3 ± 0.2 | −1.4 ± 0.2 | −2.0 ± 0.4 | −1.8 ± 0.5 | 1.1 | 0.0 ± 0.6 ^a |  | 
CSCC[C@H](NC(=O)[C@@H]1CSSC[C@H](NC(=O)[C@H](CC(N)=O)NC(=O)[C@H](Cc2c[nH]cn2)NC(=O)[C@H](CCCCN)NC(=O)[C@H](CCCNC(=N)N)NC(=O)[C@@H](N)CC(C)C)C(=O)N[C@@H](CC(C)C)C(=O)N[C@@H](CCC(N)=O)C(=O)N[C@@H](CCCNC(=N)N)C(=O)N[C@@H](CCCNC(=N)N)C(=O)N1)C(=O)N1CCC[C@H]1C(=O)N[C@@H](CC(C)C)C(=O)N[C@@H](Cc1c[nH]cn1)C(=O)N[C@@H](CO)C(=O)N[C@@H](CCCNC(=N)N)C(=O)N[C@H](C(=O)N1CCC[C@H]1C(=O)N[C@@H](Cc1ccccc1)C(=O)N1CCC[C@H]1C(=O)O)C(C)C [Elabela-21] | 0.1 | −1.0 ± 0.3 | −2.5 ± 0.2 | −2.6 ± 0.2 | −2.1 ± 0.4 | −1.9 ± 0.5 | 0.5 | −0.3 ± 0.6 ^a | significantly higher than the activation of ERK1/2 by the other ligands | 0.1
